Read-outs that look alike come from different tables or passages of the source.
How the values were obtained:
[1] = test system: HCV replicon genotype 1a; experiment: HCV Replicon Luciferase Reporter Assay (LE Assay), genotype 1a replicon; type: cell-based, HCV genotype 1a; conditions: Hepatitis C virus, read-out: LE NeoLuc EC50
Method: (§1) The HCV replicon luciferase assay was developed to monitor the inhibitory effects of compounds described in the disclosure on HCV viral replication. Utilization of a replicon luciferase reporter assay was first described by Krieger et al (Krieger N, Lohmann V, and Bartenschlager R, J. Virol. 75(10):4614-4624 (2001)). HUH-7 cells, constitutively expressing the HCV replicon, were grown in Dulbeccors Modified Eagle Media (DMEM) (Gibco-BRL) containing 10% Fetal calf serum (FCS) (Sigma) and 1 mg/ml G418 (Gibco-BRL). Compounds were serially diluted 3 folds in DMSO for a twenty-point titration and subsequently transferred to sterile 384-well tissue-culture treated plates (Coming cat #3571). The plates were then seeded with 50 μl of cells at a density of 3.0×10^3 cells/well in DMEM containing 4% FCS (final DMSO concentration at 0.5%). After 3 days incubation at 37° C., cells were analyzed for Renilla Luciferase activity using the EnduRen as substrate (Promega cat #E6485). The EnduRen substrate was diluted in DMEM and then added to the plates to a final concentration of 7.5 μM. The plates were incubated for 2 hrs at 37° C. and then read immediately for 30 seconds with Viewlux Imager (PerkinElmer) using a luminescence program. To assess cytotoxicity of compounds, CC50 values were generated by multiplexing the EnduRen-containing plates with Cell Titer-Blue (Promega, cat #G8082). 3 μl of Cell-Titer Blue was added to each well and incubated for 8 hrs at 37° C. The fluorescence signal from each well was read, with an excitation wavelength at 525/10 nm and an emission wavelength of 598/10 nm, using the Viewlux Imager.

[2] = molecular target: T1, HCV NS5B (Hepatitis C virus genotype 1b, UniProt Q9WMX2); experiment: HCV NS5B RdRp enzyme assay; type: biochemical; conditions: HCV NS5B RdRp genotype 1b
T1 construct: The protein was expressed with an 18 amino acid C-terminal truncation to enhance the solubility; made in house; host or cells: E. coli BL21(DE3)
Method: HCV NS5B RdRp cloning, expression, and purification. The cDNA encoding the NS5B protein of HCV, genotype 1b, was cloned into the pET21a expression vector. The protein was expressed with an 18 amino acid C-terminal truncation to enhance the solubility. The E. coli competent cell line BL21(DE3) was used for expression of the protein. Cultures were grown at 37° C. for ˜4 hours until the cultures reached an optical density of 2.0 at 600 nm. The cultures were cooled to 20° C. and induced with 1 mM IPTG. Fresh ampicillin was added to a final concentration of 50 μg/ml and the cells were grown overnight at 20° C.
Cell pellets (3L) were lysed for purification to yield 15-24 mgs of purified NS5B. The lysis buffer consisted of 20 mM Tris-HCl, pH 7.4, 500 mM NaCl, 0.5% triton X-100, 1 mM DTT, 1 mM EDTA, 20% glycerol, 0.5 mg/ml lysozyme, 10 mM MgCl2, 15 ug/ml deoxyribonuclease I, and Complete TM protease inhibitor tablets (Roche). After addition of the lysis buffer, frozen cell pellets were resuspended using a tissue homogenizer. To reduce the viscosity of the sample, aliquots of the lysate were sonicated on ice using a microtip attached to a Branson sonicator. The sonicated lysate was centrifuged at 100,000×g for 1 hr at 4° C. and filtered through a 0.2 μm filter unit (Corning).
The protein was purified using three sequential chromatography steps: Heparin sepharose CL-6B, polyU sepharose 4B, and Hitrap SP sepharose (Pharmacia). The chromatography buffers were identical to the lysis buffer but contained no lysozyme, deoxyribonuclease I, MgCl2 or protease inhibitor and the NaCl concentration of the buffer was adjusted according to the requirements for charging the protein onto the column. Each column was eluted with a NaCl gradient which varied in length from 5-50 column volumes depending on the column type. After the final chromatography step, the resulting purity of the enzyme is >90% based on SDS-PAGE analysis. The enzyme was aliquoted and stored at −80° C.
Standard HCV NS5B RdRp enzyme assay. HCV RdRp genotype 1b assays were run in a final volume of 60 μl in 96 well plates (Costar 3912). The assay buffer is composed of 20 mM Hepes, pH 7.5, 2.5 mM KCl, 2.5 mM MgCl2, 1 mM DTT, 1.6 U RNAse inhibitor (Promega N2515), 0.1 mg/ml BSA (Promega R3961), and 2% glycerol. All compounds were serially diluted (3-fold) in DMSO and diluted further in water such that the final concentration of DMSO in the assay was 2%. HCV RdRp genotype 1b enzyme was used at a final concentration of 28 nM. A polyA template was used at 6 nM, and a biotinylated oligo-dT12 primer was used at 180 nM final concentration. Template was obtained commercially (Amersham 27-4110). Biotinylated primer was prepared by Sigma Genosys. 3H-UTP was used at 0.6 μCi (0.29 μM total UTP). Reactions were initiated by the addition of enzyme, incubated at 30° C. for 60 min, and stopped by adding 25 μl of 50 mM EDTA containing SPA beads (4 μg/μl, Amersham RPNQ 0007). Plates were read on a Packard Top Count NXT after >1 hr incubation at room temperature.
Modified HCV NS5B RdRp enzyme assay. A modified enzyme assay was performed essentially as described for the standard enzyme assay except for the following: The biotinylated oligo dT12 primer was precaptured on streptavidin-coated SPA beads by mixing primer and beads in assay buffer and incubating at room temperature for one hour. Unbound primer was removed after centrifugation. The primer-bound beads were resuspended in 20 mM Hepes buffer, pH 7.5 and used in the assay at final concentrations of 20 nM primer and 0.67 μg/μl beads. Order of addition in the assay: enzyme (14 nM) was added to diluted compound followed by the addition of a mixture of template (0.2 nM), 3H-UTP (0.6 μCi, 0.29 μM), and primer-bound beads, to initiate the reaction; concentrations given are final. Reactions were allowed to proceed for 4 hours at 30° C.
IC50 values for compounds were determined using seven different [I]. […]

[3] = test system: HCV replicon; experiment: HCV Replicon Luciferase Reporter Assay (LE Assay); type: cell-based, HCV genotype 1b; conditions: Hepatitis C virus
Method: as §1

[4] = genotype 1b, Huh-7, read-out: LE NeoLuc EC50, Table 1, HUH-7 cells, genotype 1b replicon
[5] = Huh-7, Table 2, HUH-7 cells, read-out: LE NeoLuc EC50

T1 sequence (Q9WMX2 2420-2992): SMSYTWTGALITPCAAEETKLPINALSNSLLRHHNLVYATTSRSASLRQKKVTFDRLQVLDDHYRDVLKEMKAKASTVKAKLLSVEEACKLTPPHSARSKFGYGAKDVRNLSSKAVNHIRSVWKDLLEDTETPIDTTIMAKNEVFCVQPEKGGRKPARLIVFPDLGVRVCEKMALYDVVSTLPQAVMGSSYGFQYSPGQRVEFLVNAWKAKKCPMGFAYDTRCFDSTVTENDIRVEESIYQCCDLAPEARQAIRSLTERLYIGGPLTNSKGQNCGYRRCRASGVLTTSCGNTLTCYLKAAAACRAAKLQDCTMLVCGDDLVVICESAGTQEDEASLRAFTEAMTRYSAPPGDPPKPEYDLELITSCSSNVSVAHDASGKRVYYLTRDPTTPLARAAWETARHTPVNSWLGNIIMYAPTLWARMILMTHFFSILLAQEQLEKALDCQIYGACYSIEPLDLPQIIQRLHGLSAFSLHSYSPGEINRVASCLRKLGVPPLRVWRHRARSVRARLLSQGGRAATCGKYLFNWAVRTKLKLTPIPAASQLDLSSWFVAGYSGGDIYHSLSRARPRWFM

SMILES | EC50 [1] [nM] | IC50 ([2]; Table 1) [nM] | EC50 [3, 4] [nM] | IC50 ([2]; Table 2) [nM] | EC50 [3, 5] [nM]
COc1ccc2c(c1)[C@@H]1C[C@]1(C(=O)N1CC34CCC3(CN(C(=O)N3CCOCC3)C4)C1)Cn1c-2c(C2CCCCC2)c2ccc(C(=O)NS(=O)(=O)N(C)C)cc21 (stereo partly drawn) | 1.9 to 500 | 1.9 to 500 | – | – | –
COc1ccc2c(c1)[C@@H]1C[C@]1(C(=O)N1CC34CCC3(CN(CC(F)(F)F)C4)C1)Cn1c-2c(C2CCCCC2)c2ccc(C(=O)NS(=O)(=O)C(C)C)cc21 (stereo partly drawn) | 1.9 to 500 | 1.9 to 500 | – | – | –
COc1ccc2c(c1)[C@@H]1C[C@]1(C(=O)N1CC34CCC3(C1)C[N+]([O-])(CC(F)(F)F)C4)Cn1c-2c(C2CCCCC2)c2ccc(C(=O)NS(=O)(=O)N(C)C)cc21 (stereo partly drawn) | 1.9 to 500 | < 1.7 | – | – | –
COc1ccc2c(c1)[C@@H]1C[C@]1(C(=O)N1CC34CCC3(CN(CC(F)(F)F)C4)C1)Cn1c-2c(C2CCCCC2)c2ccc(C(=O)NS(=O)(=O)N(C)C)cc21 (stereo partly drawn) | – | 1.9 to 500 | 1.9 to 500 | – | –
COC(=O)N1CC23CCC2(C1)CN(C(=O)[C@]12C[C@H]1c1cc(OC)ccc1-c1c(C4CCCCC4)c4ccc(C(=O)NS(=O)(=O)C(C)C)cc4n1C2)C3 (stereo partly drawn) | – | 1.9 to 500 | 1.9 to 500 | – | –
COc1ccc2c(c1)[C@@H]1C[C@]1(C(=O)N1CC34CCC3(C1)CN(S(=O)(=O)C(C)C)C4)Cn1c-2c(C2CCCCC2)c2ccc(C(=O)NS(=O)(=O)N(C)C)cc21 (stereo partly drawn) | – | 1.9 to 500 | 1.9 to 500 | – | –
COc1ccc2c(c1)[C@@H]1C[C@]1(C(=O)N1CC34CCC3(C1)CN(S(=O)(=O)C(C)C)C4)Cn1c-2c(C2CCCCC2)c2ccc(C(=O)NS(=O)(=O)C(C)C)cc21 (stereo partly drawn) | – | 1.9 to 500 | 1.9 to 500 | – | –
CCOCCN1CC23CCC2(C1)CN(C(=O)[C@]12C[C@H]1c1cc(OC)ccc1-c1c(C4CCCCC4)c4ccc(C(=O)NS(=O)(=O)C(C)C)cc4n1C2)C3 (stereo partly drawn) | 1.9 to 500 | – | – | – | –
COc1ccc2c(c1)[C@@H]1C[C@]1(C(=O)N1CC34CCC3(C1)CN(C1CC1)C4)Cn1c-2c(C2CCCCC2)c2ccc(C(=O)NS(=O)(=O)N(C)C)cc21 (stereo partly drawn) | 1.9 to 500 | – | – | – | –
COc1ccc2c(c1)[C@@H]1C[C@]1(C(=O)N1CC34CCC3(CN(C)C4)C1)Cn1c-2c(C2CCCCC2)c2ccc(C(=O)NS(=O)(=O)C(C)C)cc21 (stereo partly drawn) [drawing 71] | – | 1.9 to 500 | 1.9 to 500 | – | –
CNC(=O)N1CC23CCC2(C1)CN(C(=O)[C@]12C[C@H]1c1cc(OC)ccc1-c1c(C4CCCCC4)c4ccc(C(=O)NS(=O)(=O)C(C)C)cc4n1C2)C3 (stereo partly drawn) [drawing 99] | – | < 1.7 | 1.9 to 500 | – | –
COc1ccc2c(c1)[C@@H]1C[C@]1(C(=O)N1CC34CCC3(CN(C)C4)C1)Cn1c-2c(C2CCCCC2)c2ccc(C(=O)NS(=O)(=O)C(C)C)cc21 (stereo partly drawn) [drawing 108] | – | – | – | 3.5 | 6.96
CNC(=O)N1CC23CCC2(C1)CN(C(=O)[C@]12C[C@H]1c1cc(OC)ccc1-c1c(C4CCCCC4)c4ccc(C(=O)NS(=O)(=O)C(C)C)cc4n1C2)C3 (stereo partly drawn) [drawing 111] | – | – | – | < 1.7 | 60

— US8143244B2, “Cyclopropyl fused indolobenzazepine HCV NS5B inhibitors” (Bristol-Myers Squibb Company, priority 2009, dated 2012)
